From ChEMBL document CHEMBL1156414, “Safety and activity of the immune modulator HE2000 on the incidence of tuberculosis and other opportunistic infections in AIDS patients” (2007)
Calls of active or inactive are those of the source. The calls are words filed in the database; no cut-off is given here.

Tests used:
[1] = tested on: Mycobacterium tuberculosis; assay: Reduction in incidence of Mycobacterium tuberculosis coinfection in AIDS patient at 100 mg administered intramuscularly once daily for 5 days measured 140 days postdose; format: functional, organism-based
[2] = tested on: Mycobacterium tuberculosis; assay: Reduction in incidence of Mycobacterium tuberculosis coinfection in AIDS patient at 100 mg administered intramuscularly once daily for 5 days; format: functional; set-up: scale not given: the % may be the effect or the level left
[3] = tested on: Homo sapiens; assay: Reduction in cumulative incidence of opportunistic infections in AIDS patient at 100 mg administered intramuscularly once daily for 5 days; format: functional, organism-based

SMILES: C[C@]12CC[C@H](O)C[C@@H]1CC[C@@H]1[C@@H]2CC[C@]2(C)C(=O)[C@H](Br)C[C@@H]12 [16.ALPHA.-BROMOEPIANDROSTERONE]
- Activity [1]: Active
- Activity [2]: 42.2%
- Activity [3]: Active
